Experimental data from patent US11464780B2, “Pyrazolopyrimidine derivative and use thereof” (Simcere Pharmaceutical Co. Ltd., priority 2018, dated 2022).
Where two headings read alike, the source gives them in different places.

Assays:
Ros-G2032R = target: T1, Ros-G2032R (Homo sapiens, UniProt P08922, G2032R); test: Kinase inhibitory activity (33P-ATP filter binding, Reaction Biology Corp.); format: biochemical; conditions: read-out: The half maximal inhibitory concentration IC50 on the kinases, Ros-G2032R
T1 construct: purchased Reaction Biology Corp. (contract assay)
T1 sequence (P08922 28-2347 G2032R): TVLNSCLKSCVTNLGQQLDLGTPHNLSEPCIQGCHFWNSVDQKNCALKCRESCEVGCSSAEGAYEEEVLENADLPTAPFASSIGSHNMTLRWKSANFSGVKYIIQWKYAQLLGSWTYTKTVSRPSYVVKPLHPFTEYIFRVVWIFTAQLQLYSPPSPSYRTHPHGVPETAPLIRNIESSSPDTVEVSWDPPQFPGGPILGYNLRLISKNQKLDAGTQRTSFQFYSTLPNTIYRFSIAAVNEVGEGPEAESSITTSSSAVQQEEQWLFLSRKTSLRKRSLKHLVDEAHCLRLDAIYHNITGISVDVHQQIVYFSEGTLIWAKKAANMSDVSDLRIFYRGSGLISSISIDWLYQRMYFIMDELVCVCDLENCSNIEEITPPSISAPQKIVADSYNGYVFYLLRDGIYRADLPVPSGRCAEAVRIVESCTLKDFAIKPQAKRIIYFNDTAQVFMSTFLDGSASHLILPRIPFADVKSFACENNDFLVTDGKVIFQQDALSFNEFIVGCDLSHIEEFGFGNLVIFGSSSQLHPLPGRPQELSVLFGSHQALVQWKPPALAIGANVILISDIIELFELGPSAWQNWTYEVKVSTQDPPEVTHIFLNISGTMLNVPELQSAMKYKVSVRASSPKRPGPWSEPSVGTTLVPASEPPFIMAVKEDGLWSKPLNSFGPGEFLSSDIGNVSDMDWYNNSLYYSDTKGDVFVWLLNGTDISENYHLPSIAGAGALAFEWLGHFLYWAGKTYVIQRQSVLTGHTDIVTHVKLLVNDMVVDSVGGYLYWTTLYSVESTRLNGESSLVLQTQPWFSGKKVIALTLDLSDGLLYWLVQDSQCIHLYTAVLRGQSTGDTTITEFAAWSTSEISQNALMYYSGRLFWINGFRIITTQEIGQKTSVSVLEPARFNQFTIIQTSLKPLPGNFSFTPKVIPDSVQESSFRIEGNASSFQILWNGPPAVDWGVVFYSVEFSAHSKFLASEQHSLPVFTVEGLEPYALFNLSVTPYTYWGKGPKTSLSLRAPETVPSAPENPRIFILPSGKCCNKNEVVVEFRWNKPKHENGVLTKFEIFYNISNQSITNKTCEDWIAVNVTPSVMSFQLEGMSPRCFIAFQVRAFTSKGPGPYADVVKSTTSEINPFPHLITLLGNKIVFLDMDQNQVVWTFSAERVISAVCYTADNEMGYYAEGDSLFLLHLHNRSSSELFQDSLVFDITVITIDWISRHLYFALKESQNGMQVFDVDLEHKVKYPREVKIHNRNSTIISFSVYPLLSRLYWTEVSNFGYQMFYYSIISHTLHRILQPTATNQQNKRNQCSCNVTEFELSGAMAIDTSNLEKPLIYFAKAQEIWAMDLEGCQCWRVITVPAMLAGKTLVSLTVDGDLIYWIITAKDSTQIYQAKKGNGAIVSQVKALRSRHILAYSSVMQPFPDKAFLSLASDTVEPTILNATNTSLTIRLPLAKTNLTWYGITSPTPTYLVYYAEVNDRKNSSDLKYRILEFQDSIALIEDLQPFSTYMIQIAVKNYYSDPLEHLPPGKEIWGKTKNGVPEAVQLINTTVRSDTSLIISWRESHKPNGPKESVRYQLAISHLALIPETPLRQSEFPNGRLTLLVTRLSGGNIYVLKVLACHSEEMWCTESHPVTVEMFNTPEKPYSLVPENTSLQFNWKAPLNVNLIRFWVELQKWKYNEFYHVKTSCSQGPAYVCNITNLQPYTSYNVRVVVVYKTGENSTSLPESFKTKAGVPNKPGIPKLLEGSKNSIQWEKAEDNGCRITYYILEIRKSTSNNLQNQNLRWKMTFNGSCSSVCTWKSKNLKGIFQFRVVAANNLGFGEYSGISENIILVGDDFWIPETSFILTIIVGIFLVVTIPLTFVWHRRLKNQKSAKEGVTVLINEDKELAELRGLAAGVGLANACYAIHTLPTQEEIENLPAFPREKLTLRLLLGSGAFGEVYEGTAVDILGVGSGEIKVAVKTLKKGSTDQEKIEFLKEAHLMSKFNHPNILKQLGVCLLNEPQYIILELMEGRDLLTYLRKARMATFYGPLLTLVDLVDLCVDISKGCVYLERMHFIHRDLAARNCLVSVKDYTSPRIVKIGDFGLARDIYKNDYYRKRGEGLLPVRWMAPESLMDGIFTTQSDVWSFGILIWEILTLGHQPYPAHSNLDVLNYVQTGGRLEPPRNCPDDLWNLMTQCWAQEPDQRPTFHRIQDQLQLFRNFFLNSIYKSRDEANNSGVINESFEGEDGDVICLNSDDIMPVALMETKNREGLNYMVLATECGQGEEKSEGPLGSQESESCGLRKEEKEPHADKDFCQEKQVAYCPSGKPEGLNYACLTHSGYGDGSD
Experimental: (§1) The mixture was incubated at room temperature for 20 minutes. To the reaction mixture was added a certain concentration of ^33P-ATP to initiate the reaction, and then the mixture was incubated at room temperature for 120 minutes. The radioactivities of the reactants were determined by the method of filter binding. The final kinase activity was expressed as the ratio of the remaining kinase activity in the test sample to the kinase activity in the DMSO control group. The dose-effect curve was fitted by GraphPad software and the IC50 was calculated.

Ros1 = target: T2, Ros1 (Homo sapiens, UniProt P08922); test: as above; format: biochemical; conditions: read-out: The half maximal inhibitory concentration IC50 on the kinases, Ros1
T2 construct: purchased Reaction Biology Corp. (contract assay)
T2 sequence (P08922 28-2347): as the sequence (P08922 28-2347 G2032R) above, with R2005G counted along it
Experimental: as §1

TrkA = target: T3, TrkA (Homo sapiens, UniProt P04629); test: as above; format: biochemical; conditions: read-out: The half maximal inhibitory concentration IC50 on the kinases, TrkA
T3 construct: purchased Reaction Biology Corp. (contract assay)
T3 sequence (P04629 33-796): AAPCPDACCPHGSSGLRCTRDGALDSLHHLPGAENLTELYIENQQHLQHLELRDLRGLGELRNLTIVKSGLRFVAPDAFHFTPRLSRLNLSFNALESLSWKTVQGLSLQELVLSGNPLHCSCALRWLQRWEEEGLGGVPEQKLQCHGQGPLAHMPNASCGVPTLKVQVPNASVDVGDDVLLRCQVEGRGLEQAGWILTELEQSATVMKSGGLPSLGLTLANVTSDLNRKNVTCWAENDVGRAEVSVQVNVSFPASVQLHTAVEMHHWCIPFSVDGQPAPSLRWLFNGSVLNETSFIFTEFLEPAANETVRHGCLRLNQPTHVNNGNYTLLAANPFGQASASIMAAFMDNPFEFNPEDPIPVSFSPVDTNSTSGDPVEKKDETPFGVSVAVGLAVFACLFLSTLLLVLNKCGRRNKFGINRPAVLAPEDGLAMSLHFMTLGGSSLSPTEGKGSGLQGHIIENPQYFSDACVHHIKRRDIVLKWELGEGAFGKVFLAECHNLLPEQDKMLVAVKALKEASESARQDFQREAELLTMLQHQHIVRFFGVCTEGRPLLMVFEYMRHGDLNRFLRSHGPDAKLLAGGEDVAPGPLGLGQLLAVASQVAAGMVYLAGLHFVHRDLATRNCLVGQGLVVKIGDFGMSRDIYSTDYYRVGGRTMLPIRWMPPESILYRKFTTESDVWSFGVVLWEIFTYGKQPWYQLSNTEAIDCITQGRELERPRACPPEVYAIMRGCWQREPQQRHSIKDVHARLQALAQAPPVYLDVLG
Experimental: as §1

TrkA-G595R = target: T4, TrkA-G595R (Homo sapiens, UniProt P04629, G595R); test: as above; format: biochemical; conditions: read-out: The half maximal inhibitory concentration IC50 on the kinases, TrkA-G595R
T4 construct: purchased Reaction Biology Corp. (contract assay)
T4 sequence (P04629 33-796 G595R): as the sequence (P04629 33-796) above, with G563R counted along it
Experimental: as §1

TrkA-G667C = target: T5, TrkA-G667C (Homo sapiens, UniProt P04629, G667C); test: as above; format: biochemical; conditions: read-out: The half maximal inhibitory concentration IC50 on the kinases, TrkA-G667C
T5 construct: purchased Reaction Biology Corp. (contract assay)
T5 sequence (P04629 33-796 G667C): as the sequence (P04629 33-796) above, with G635C counted along it
Experimental: as §1

TrkC = target: T6, TrkC (Homo sapiens, UniProt Q16288); test: as above; format: biochemical; conditions: read-out: The half maximal inhibitory concentration IC50 on the kinases, TrkC
T6 construct: purchased Reaction Biology Corp. (contract assay)
Experimental: as §1

ALK = target: T7, ALK (Homo sapiens, UniProt Q9UM73); test: as above; format: biochemical; conditions: read-out: The half maximal inhibitory concentration IC50 on the kinases, ALK
T7 construct: purchased Reaction Biology Corp. (contract assay)
Experimental: The inhibitory activities of the compounds on TrkA, TrkC, ALK, Ros1 and other kinases were determined by Reaction Biology Corp. To reaction buffer (20 mM Hepes (pH 7.5), 10 mM MgCl2, 1 mM EGTA, 0.02% Brij35, 0.02 mg/mL BSA, 0.1 mM Na3VO4, 2 mM DTT, 1% DMSO) were sequentially added a certain concentration of substrate, coenzyme factor, kinase and test compound (10 concentrations, 3-fold serial dilutions, DMSO at a final concentration of […]), and the mixture was mixed evenly. The mixture was incubated at room temperature for 20 minutes. To the reaction mixture was added a certain concentration of ^33P-ATP to initiate the reaction, and then the mixture was incubated at room temperature for 120 minutes. The radioactivities of the reactants were determined by the method of filter binding. The final kinase activity was expressed as the ratio of the remaining kinase activity in the test sample to the kinase activity in the DMSO control group. The dose-effect curve was fitted by GraphPad software and the IC50 was calculated.

[1] = target: T8, Ba/F3 LMNA-NTRK1-WT stably transfected cell line (Homo sapiens, UniProt P04629); test: Cell proliferation inhibition (CellTiter-Glo); format: cell-based; conditions: 72 hours, read-out: The half maximal inhibitory concentration IC50 against cells, Ba/F3 LMNA-NTRK1-WT
T8 construct: fused on or other part: P02545 (Prelamin-A/C)
T8 sequence (P04629 whole entry, stated change not applied, the tested form may be a part): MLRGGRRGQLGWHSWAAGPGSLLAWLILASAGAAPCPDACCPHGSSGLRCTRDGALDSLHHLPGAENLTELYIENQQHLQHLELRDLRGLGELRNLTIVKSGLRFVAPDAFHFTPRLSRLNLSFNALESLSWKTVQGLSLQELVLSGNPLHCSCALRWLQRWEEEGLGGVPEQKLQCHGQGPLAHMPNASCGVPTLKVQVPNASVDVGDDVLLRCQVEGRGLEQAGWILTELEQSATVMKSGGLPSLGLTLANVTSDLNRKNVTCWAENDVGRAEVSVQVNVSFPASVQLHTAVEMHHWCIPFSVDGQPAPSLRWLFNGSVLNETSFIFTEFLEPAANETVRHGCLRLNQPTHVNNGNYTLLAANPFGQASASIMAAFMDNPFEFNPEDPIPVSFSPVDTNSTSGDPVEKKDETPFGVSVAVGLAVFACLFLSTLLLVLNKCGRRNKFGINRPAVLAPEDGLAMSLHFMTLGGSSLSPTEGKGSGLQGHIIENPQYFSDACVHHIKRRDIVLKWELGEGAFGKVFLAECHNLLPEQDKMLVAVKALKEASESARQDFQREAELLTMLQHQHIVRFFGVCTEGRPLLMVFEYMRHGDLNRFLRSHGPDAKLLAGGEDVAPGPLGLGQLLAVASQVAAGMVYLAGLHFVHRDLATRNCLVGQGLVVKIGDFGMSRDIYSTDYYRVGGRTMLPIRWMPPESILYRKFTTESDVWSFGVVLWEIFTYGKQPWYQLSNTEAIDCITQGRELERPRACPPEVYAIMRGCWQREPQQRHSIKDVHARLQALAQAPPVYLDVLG
Experimental: Adenosine Tri-Phosphate (ATP) is an energy carrier shared by various life activities in nature, and is the smallest unit of energy storage and transfer. The CellTiter-Glo™ cell viability detection kit uses luciferase as the detection substance, and luciferase requires the participation of ATP during the process of luminescence. CellTiter-Glo™ reagent is added to cell culture medium, and the luminescent intensity is measured. The luminescent signal is directly proportional to the amount of ATP in the system, and ATP is positively related to the number of living cells. Therefore, by using the CellTiter-Glo kit to detect ATP content, cell proliferation can be detected. In this assay, the cell line is Ba/F3 LMNA-NTRK1-WT stably transfected cell line, with 5000 cells/well.
IC50 Determination Process:
1. Cell Culture and Inoculation
a) the cells in the logarithmic growth phase were harvested, and counted with a platelet counter. Trypan blue exclusion method was used to detect cell viability to ensure the cell viability was no less than 90%.
b) the cell concentration was adjusted; 90 μL of cell suspension was added respectively into a 96-well plate.
c) the cells in the 96-well plates was cultured under conditions of 37° C., 5% CO2 and 95% humidity overnight.
2. Drug Dilution and Administration
a) 10-fold drug solutions were prepared, the highest concentration was 10 μM, 9 concentrations, 3-fold diluted (refer to Appendix I). 10 μL of each drug solution was added to each well of the 96-well plate seeded with the cells in triplicate.
b) the cells in the 96-well plate added with the drug were cultured under conditions of 37° C., 5% CO2 and 95% humidity for 72 hours, and then CTG (cell proliferation) was performed.
a) CellTiter-Glo™ reagent was thawed, and the cell plate was equilibrated at room temperature for 30 minutes.
b) CellTiter-Glo™ reagent of a same volume was added to each well;
c) the cell plate was shaken on an orbital shaker for 5 minutes to lyse the cells.
d) the cell plate was placed at room temperature for 20 minutes to stabilize the luminescent signal.
e) the luminescent intensity was read.
GraphPad Prism 5.0 software was used to analyze the data, nonlinear S-curve regression was used to fit the data to obtain dose-effect curve, and IC50 value was calculated therefrom.

[2] = target: T9, Ba/F3 LMNA-NTRK1-G595R stably transfected cell line (Homo sapiens, UniProt P04629, G595R, cells depend on it); test: Cell proliferation inhibition (CellTiter-Glo); format: cell-based; conditions: 72 hours, read-out: The half maximal inhibitory concentration IC50 against cells, Ba/F3 LMNA-NTRK1-G595R
T9 construct: fused on or other part: P02545 (Prelamin-A/C)
T9 sequence (P04629 whole entry G595R, the tested form may be a part): as the sequence (P04629 whole entry, stated change not applied, the tested form may be a part) above, with G595R counted along it

[3] = target: T10, BaF3 ETV6-NTRK3-G623R stably transfected cell line (Homo sapiens, UniProt Q16288, G623R, cells depend on it); test: Cell proliferation inhibition (CellTiter-Glo); format: cell-based; conditions: 72 hours, read-out: The half maximal inhibitory concentration IC50 against cells, BaF3 ETV6-NTRK3-G623R
T10 construct: fused on or other part: P41212 (Transcription factor ETV6)
T10 sequence (Q16288 whole entry G623R, the tested form may be a part): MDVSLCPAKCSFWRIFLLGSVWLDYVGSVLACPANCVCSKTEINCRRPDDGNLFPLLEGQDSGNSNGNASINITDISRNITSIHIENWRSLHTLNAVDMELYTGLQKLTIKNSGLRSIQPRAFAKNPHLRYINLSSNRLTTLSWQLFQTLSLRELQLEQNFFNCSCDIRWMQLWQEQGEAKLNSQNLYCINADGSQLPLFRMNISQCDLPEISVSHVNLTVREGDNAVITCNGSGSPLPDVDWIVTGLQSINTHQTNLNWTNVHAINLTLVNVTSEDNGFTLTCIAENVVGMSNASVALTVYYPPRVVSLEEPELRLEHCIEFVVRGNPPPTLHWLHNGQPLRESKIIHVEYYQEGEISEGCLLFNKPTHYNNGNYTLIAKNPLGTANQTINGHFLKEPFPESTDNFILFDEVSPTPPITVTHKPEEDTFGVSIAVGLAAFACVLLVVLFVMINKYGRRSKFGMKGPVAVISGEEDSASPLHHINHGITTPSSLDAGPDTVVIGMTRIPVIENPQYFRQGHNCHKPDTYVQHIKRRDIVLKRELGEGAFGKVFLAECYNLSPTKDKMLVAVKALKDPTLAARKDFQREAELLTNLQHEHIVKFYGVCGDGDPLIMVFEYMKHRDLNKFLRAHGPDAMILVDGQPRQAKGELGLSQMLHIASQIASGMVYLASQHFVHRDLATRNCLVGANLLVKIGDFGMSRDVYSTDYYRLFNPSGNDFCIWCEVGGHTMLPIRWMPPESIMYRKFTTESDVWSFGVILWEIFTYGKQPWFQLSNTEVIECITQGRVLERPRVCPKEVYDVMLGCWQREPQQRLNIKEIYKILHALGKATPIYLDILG

[4] = target: T11, Ba/F3 SLC34A2-ROS1-WT stably transfected cell line (Homo sapiens, UniProt P08922); test: Cell proliferation inhibition (CellTiter-Glo); format: cell-based; conditions: 72 hours, read-out: The half maximal inhibitory concentration IC50 against cells, Ba/F3 SLC34A2-ROS1-WT
T11 construct: fused on or other part: O95436 (Sodium-dependent phosphate transport protein 2B)

[5] = target: T12, Ba/F3 SLC34A2-ROS1-G2032R stably transfected cell line (Homo sapiens, UniProt P08922, G2032R, cells depend on it); test: Cell proliferation inhibition (CellTiter-Glo); format: cell-based; conditions: 72 hours, read-out: The half maximal inhibitory concentration IC50 against cells, Ba/F3 SLC34A2-ROS1-G2032R
T12 construct: fused on or other part: O95436 (Sodium-dependent phosphate transport protein 2B)

[6] = In vivo pharmacokinetic test in mice; parameters: species or system male CD-1 mice; conditions: for Vd / AUC(0-t) / half-life / bioavailability / Cmax / Tmax: male, CD-1, mouse, plasma; for Vd: read-out: Apparent volume of distribution Vd; for AUC(0-t): read-out: Area under the curve AUC0-last; for half-life: read-out: Half life T1/2 (converted); for bioavailability: PO dose of 10 mL/kg vs IV 3 mg/kg, read-out: Bioavailability F %; for Cmax: read-out: Peak concentration Cmax; for Tmax: read-out: Time of peak concentration Tmax
Experimental: Experimental object: male CD-1 mice aged 7-9 weeks were used as the experimental animals, the LC/MS/MS method was used to determine the drug concentrations in plasma at different time points after single intravenous (IV) and intragastric (PO) administration of the compounds, in vivo pharmacokinetic behaviors of the compounds of the present disclosure in mice were studied, and pharmacokinetic characteristics thereof were evaluated. Drug preparation: The compounds were prepared into clear solutions with 5% DMSO+10% solutol+85% water as solvent for administration in IV (intravenous) group and PO (intragastric). The dose of the compounds: IV dose of 3 mg/kg, and PO dose of […].

[7] = target: T13, Ba/F3 LMNA-NTRK1-F589L stably transfected cell line (Homo sapiens, UniProt P04629, F589L, cells depend on it); test: Cell proliferation inhibition (CellTiter-Glo); format: cell-based; conditions: 72 hours, read-out: The half maximal inhibitory concentration IC50 against cells, Ba/F3 LMNA-NTRK1-F589L
T13 construct: fused on or other part: P02545 (Prelamin-A/C)
T13 sequence (P04629 whole entry F589L, the tested form may be a part): as the sequence (P04629 whole entry, stated change not applied, the tested form may be a part) above, with F589L counted along it

O=C1N[C@@H]2CCC[C@@H]2Oc2ncc(F)cc2[C@H]2CCON2c2ccn3ncc1c3n2 [WX007A]
IC50 (Ros-G2032R): 0.73 nM | IC50 (Ros1): 0.13 nM | IC50 (TrkA): 2.8 nM | IC50 (TrkA-G595R): 5.18 nM | IC50 (TrkA-G667C): 2.85 nM | IC50 (TrkC): 0.05 nM | IC50 (ALK): 11.6 nM | GI50 [1]: 5.8 nM | GI50 [2]: 12.4 nM | GI50 [3]: 69.1 nM | GI50 [4]: 10.1 nM | GI50 [5]: 165 nM | Apparent clearance Cl ([6]; IV dose of 3 mg/kg): 5.50 mL/min/kg | Vd ([6]; IV dose of 3 mg/kg): 0.47 L/kg | AUC(0-t) ([6]; IV dose of 3 mg/kg): 22.1 µM·h | half-life ([6]; IV dose of 3 mg/kg): 52.8 min | bioavailability [6]: 76% | AUC(0-t) ([6]; PO dose of 10 mL/kg): 54.9 µM·h | Cmax ([6]; PO dose of 10 mL/kg): 22.6 µM | Tmax ([6]; PO dose of 10 mL/kg): 22.8 min

C[C@H]1CNC(=O)c2cnn3ccc(nc23)N2OCC[C@@H]2c2cc(F)cnc2O1 [WX005B]
IC50 (Ros-G2032R): 2.65 nM | IC50 (Ros1): 0.35 nM | IC50 (TrkA): 13.1 nM | IC50 (TrkA-G595R): 10.7 nM | IC50 (TrkA-G667C): 26.4 nM | IC50 (TrkC): 0.09 nM | IC50 (ALK): 19.4 nM | GI50 [1]: 5.73 nM | GI50 [2]: 9.1 nM | GI50 [3]: 5.6 nM | GI50 [4]: 17.9 nM | GI50 [5]: 259 nM | Apparent clearance Cl ([6]; IV dose of 3 mg/kg): 12.4 mL/min/kg | Vd ([6]; IV dose of 3 mg/kg): 0.44 L/kg | AUC(0-t) ([6]; IV dose of 3 mg/kg): 10.5 µM·h | half-life ([6]; IV dose of 3 mg/kg): 30 min | bioavailability [6]: 85% | AUC(0-t) ([6]; PO dose of 10 mL/kg): 29.4 µM·h | Cmax ([6]; PO dose of 10 mL/kg): 17.2 µM | Tmax ([6]; PO dose of 10 mL/kg): 22.8 min

O=C1N[C@@H]2COCC[C@@H]2Oc2ncc(F)cc2[C@H]2CCON2c2ccn3ncc1c3n2 [WX010B]
IC50 (Ros-G2032R): 0.61 nM | IC50 (TrkA): 3.1 nM | GI50 [1]: 5.8 nM | GI50 [7]: 4.26 nM | GI50 [2]: 20.9 nM | GI50 [3]: 19.5 nM | GI50 [4]: 10.4 nM | GI50 [5]: 58.1 nM | Apparent clearance Cl ([6]; IV dose of 3 mg/kg): 8.4 mL/min/kg | Vd ([6]; IV dose of 3 mg/kg): 0.68 L/kg | AUC(0-t) ([6]; IV dose of 3 mg/kg): 14 µM·h | half-life ([6]; IV dose of 3 mg/kg): 55.2 min | bioavailability [6]: 107% | AUC(0-t) ([6]; PO dose of 10 mL/kg): 49.2 µM·h | Cmax ([6]; PO dose of 10 mL/kg): 13 µM | Tmax ([6]; PO dose of 10 mL/kg): 30 min
